Series [1] in a line: Toxicity against brine shrimp assessed as mortality at 25 ppm after 6 hrs. It is filed as organism-based. The conditions noted are these: artemia, in vivo; read-out: Activity.
A short description of series [2]: Toxicity against brine shrimp assessed as mortality at 25 ppm after 24 hrs. The conditions noted are these: artemia, in vivo; read-out: Activity. It is filed as organism-based.
The subject of another series is Euphorbia esula. Description: Phytotoxicity against Euphorbia esula assessed as necrotic lesions at 5 ug by nicked leaf assay. It counts as functional.
Series [3] can be described thus: Toxicity against brine shrimp assessed as mortality at 25 ppm after 8 hrs. It counts as organism-based. The following applies: artemia, in vivo; read-out: Activity.
A short description of series [4]: Toxicity against brine shrimp assessed as mortality at 25 ppm after 4 hrs. It counts as organism-based. The conditions noted are these: artemia, in vivo; read-out: Activity.
For another series, the system named is Artemia. The experiment in a line: Toxicity against brine shrimp assessed as mortality at 25 ppm. It counts as organism-based. The following applies: in vivo.

Take `CC(=O)/C=C/Cc1c[nH]c2ccccc12`: the mortality at 6 h, 25 ppm in series [1] amounted to 0%. In addition, the mortality at 24 h, 25 ppm in series [2] was found to be 91%. Also, in the series with Euphorbia esula, the Activity is recorded as 2 mm. In addition, in series [3], the mortality at 8 h, 25 ppm came to 27%. In series [4], the mortality at 4 h, 25 ppm came to 0%.

Consider `O=C(CO)c1c[nH]c2ccccc12`, for which the Activity result in the series on Artemia is recorded as “Not Active”.

Regarding `CC(=O)c1nccc2c1[nH]c1ccccc12`, the mortality at 6 h, 25 ppm in series [1] is 21%. The mortality at 24 h, 25 ppm in series [2] is 100%. Also, in series [3], the mortality at 8 h, 25 ppm is 43%. For the same molecule, the mortality at 4 h, 25 ppm in series [4] stood at 14%.

Consider `CC(=O)/C=C/C(C)=C(\C)c1c[nH]c2ccccc12`, for which, in series [1], the mortality at 6 h, 25 ppm amounted to 20%. Also, the mortality at 24 h, 25 ppm in series [2] came out at 70%. The mortality at 8 h, 25 ppm in series [3] came to 20%. For the same molecule, the mortality at 4 h, 25 ppm in series [4] is 20%.

In the case of `CC(=O)/C=C/c1ccc(C)c(C)c1C`, the mortality at 6 h, 25 ppm in series [1] was 50%. Also, the mortality at 24 h, 25 ppm in series [2] turned out to be 100%. Also, the mortality at 8 h, 25 ppm in series [3] stood at 90%. Besides, the mortality at 4 h, 25 ppm in series [4] stood at 0%.

As to `CC(=O)/C=C/c1c[nH]c2ccccc12`, the mortality at 6 h, 25 ppm in series [1] was found to be 0%. In series [2], the mortality at 24 h, 25 ppm was found to be 39%. In addition, the mortality at 8 h, 25 ppm in series [3] came out at 8%. Further, the mortality at 4 h, 25 ppm in series [4] came out at 0%.

`Cc1cccc2c1[nH]c1ccccc12`: in series [1], the mortality at 6 h, 25 ppm amounted to 100%. Moreover, in series [4], the mortality at 4 h, 25 ppm is 82%.

On to `NC(=O)Cc1ccccc1`, for which, in the series on Artemia, the Activity result was “Not Active”.

For the origin of these results see ChEMBL document CHEMBL1158971, “Aromatic Secondary Metabolites from the Sponge Tedania ignis” (J Nat Prod, 1991).
